Results taken from the supplement of paper PMC5579334.

Legend:
[1] = tested on: HS-PSS; assay: relative IC50 (inflection point of fitted dose-response curve, CellTox-Green cytotoxicity, 72 h; top asymptote may be below 50%); higher = less potent
Method in brief: (§1)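 MPNST cell lines and primary human Schwann cells were grown for 72 h at 37 °C in 384-well plates containing five 10-fold compound dilutions. CellTox-Green, added before seeding at a final 1:1000 dilution, gave fluorescence from DNA released by disrupted cells, and signals were scaled to vehicle and positive-control wells. Curves were fitted with a four-parameter logistic model. Drug sensitivity score and relative IC50 come from these fits, with IC50 censored at the top concentration.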

[2] = tested on: HSC1; assay: as above
Method in brief: as §1

[3] = tested on: HSC2; assay: as above
Method in brief: as §1

[4] = tested on: S1507-2; assay: as above
Method in brief: as §1

[5] = tested on: ST8814; assay: as above
Method in brief: as §1

[6] = tested on: STS26T; assay: as above
Method in brief: as §1

[7] = tested on: HS-PSS; assay: relative IC50 (inflection point of fitted dose-response curve, CellTiter-Glo viability, 72 h; top asymptote may be below 50% inhibition); higher = less potent
Method in brief: (§2)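 For this screen, 384-well plates were preprinted with each compound at five concentrations in 10-fold steps and seeded with MPNST cell lines or primary human Schwann cells at 750–1000 cells per well. Incubation lasted 72 h at 37 °C, 5% CO2, and CellTiter-Glo ATP luminescence, scaled between vehicle and positive-control wells and averaged over duplicates where available, served as viability. Logistic fits with four parameters were applied. Relative IC50 (censored at the top concentration) and drug sensitivity score derive from these fits, and percent inhibition is at the top concentration.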

[8] = tested on: HS-Sch-2; assay: as above
Method in brief: as §2

[9] = tested on: HSC1; assay: as above
Method in brief: as §2

[10] = tested on: HSC2; assay: as above
Method in brief: as §2

[11] = tested on: S1507-2; assay: as above
Method in brief: as §2

[12] = tested on: S462; assay: as above
Method in brief: as §2

[13] = tested on: ST8814; assay: as above
Method in brief: as §2

[14] = tested on: STS26T; assay: as above
Method in brief: as §2

[15] = tested on: YST-1; assay: as above
Method in brief: as §2

NS(=O)(=O)OC[C@@H]1C[C@@H](n2ccc3c(N[C@H]4CCc5ccccc54)ncnc32)C[C@@H]1O [Pevonedistat]
relative IC50 [1]: 222 nM
relative IC50 [2]: 737 nM
relative IC50 [3]: 1220 nM
relative IC50 [4]: 291 nM
relative IC50 [5]: 201 nM
relative IC50 [6]: 137 nM
relative IC50 [7]: 89.6 nM
relative IC50 [8]: 46.8 nM
relative IC50 [9]: 513 nM
relative IC50 [10]: 380 nM
relative IC50 [11]: 208 nM
relative IC50 [12]: 95.2 nM
relative IC50 [13]: 187 nM
relative IC50 [14]: 520 nM
relative IC50 [15]: 128 nM

O=C(/C=C/c1cccnc1)NCCCCC1CCN(C(=O)c2ccccc2)CC1 [Daporinad]
relative IC50 [1]: > 1000 nM
relative IC50 [2]: > 1000 nM
relative IC50 [3]: > 1000 nM
relative IC50 [4]: > 1000 nM
relative IC50 [5]: > 1000 nM
relative IC50 [6]: 36.1 nM
relative IC50 [7]: 5.73 nM
relative IC50 [8]: 3.57 nM
relative IC50 [9]: 7.32 nM
relative IC50 [10]: 8.05 nM
relative IC50 [11]: 37.8 nM
relative IC50 [12]: 4.41 nM
relative IC50 [13]: 7.62 nM
relative IC50 [14]: 36.9 nM
relative IC50 [15]: 2.8 nM

C=CC(=O)Nc1cc2c(Nc3ccc(F)c(Cl)c3)ncnc2cc1OCCCN1CCOCC1 [Canertinib]
relative IC50 [1]: 2420 nM
relative IC50 [2]: 2160 nM
relative IC50 [3]: 2000 nM
relative IC50 [4]: 2410 nM
relative IC50 [5]: 2970 nM
relative IC50 [6]: 2700 nM
relative IC50 [7]: 2440 nM
relative IC50 [8]: 2530 nM
relative IC50 [9]: 1610 nM
relative IC50 [10]: 2030 nM
relative IC50 [11]: 1560 nM
relative IC50 [12]: 2780 nM
relative IC50 [13]: 1870 nM
relative IC50 [14]: 2220 nM
relative IC50 [15]: 3180 nM

CC(C)(C)c1cnc(CSc2cnc(NC(=O)C3CCNCC3)s2)o1 [SNS-032]
relative IC50 [1]: 2450 nM
relative IC50 [2]: 11.9 nM
relative IC50 [3]: 6.74 nM
relative IC50 [4]: > 10000 nM
relative IC50 [5]: 27.2 nM
relative IC50 [6]: 15.9 nM
relative IC50 [7]: 26.7 nM
relative IC50 [8]: 48.5 nM
relative IC50 [9]: 5.57 nM
relative IC50 [10]: 3.76 nM
relative IC50 [11]: 141 nM
relative IC50 [12]: 10.4 nM
relative IC50 [13]: 46.6 nM
relative IC50 [14]: 21 nM
relative IC50 [15]: 38.3 nM

Nc1nc(NC2CC2)cc(-c2cccc(Cl)c2Cl)n1 [TH588]
relative IC50 [1]: > 25000 nM
relative IC50 [2]: 4520 nM
relative IC50 [3]: 3820 nM
relative IC50 [4]: 4040 nM
relative IC50 [5]: 5560 nM
relative IC50 [6]: 3540 nM
relative IC50 [7]: 3820 nM
relative IC50 [8]: 4160 nM
relative IC50 [9]: 5430 nM
relative IC50 [10]: 4280 nM
relative IC50 [11]: 4360 nM
relative IC50 [12]: 6910 nM
relative IC50 [13]: 3830 nM
relative IC50 [14]: 3710 nM
relative IC50 [15]: 3620 nM

O=C(/C=C/c1cccc(S(=O)(=O)Nc2ccccc2)c1)NO [Belinostat]
relative IC50 [1]: 1490 nM
relative IC50 [2]: 1770 nM
relative IC50 [3]: 1700 nM
relative IC50 [4]: 1190 nM
relative IC50 [5]: 800 nM
relative IC50 [6]: 415 nM
relative IC50 [7]: 924 nM
relative IC50 [8]: 610 nM
relative IC50 [9]: 459 nM
relative IC50 [10]: 704 nM
relative IC50 [11]: 364 nM
relative IC50 [12]: 762 nM
relative IC50 [13]: 321 nM
relative IC50 [14]: 718 nM
relative IC50 [15]: 259 nM

Nc1cc(C(F)(F)F)c(-c2cc(N3CCOCC3)nc(N3CCOCC3)n2)cn1 [Buparlisib]
relative IC50 [1]: > 10000 nM
relative IC50 [2]: 2710 nM
relative IC50 [3]: 2210 nM
relative IC50 [4]: 2960 nM
relative IC50 [5]: 2660 nM
relative IC50 [6]: 1610 nM
relative IC50 [7]: 1750 nM
relative IC50 [8]: 1610 nM
relative IC50 [9]: 1990 nM
relative IC50 [10]: 2020 nM
relative IC50 [11]: 1370 nM
relative IC50 [12]: 1790 nM
relative IC50 [13]: 1690 nM
relative IC50 [14]: 1530 nM
relative IC50 [15]: 844 nM

CNC(=O)c1cc(Oc2ccc(NC(=O)Nc3cc(C(C)(C)C)nn3-c3ccc4ncccc4c3)c(F)c2)ccn1 [Rebastinib]
relative IC50 [1]: > 1000 nM
relative IC50 [2]: > 1000 nM
relative IC50 [3]: > 1000 nM
relative IC50 [4]: > 1000 nM
relative IC50 [5]: > 1000 nM
relative IC50 [6]: > 1000 nM
relative IC50 [7]: > 1000 nM
relative IC50 [8]: > 1000 nM
relative IC50 [9]: > 1000 nM
relative IC50 [10]: > 1000 nM
relative IC50 [11]: > 1000 nM
relative IC50 [12]: > 1000 nM
relative IC50 [13]: > 1000 nM
relative IC50 [14]: > 1000 nM
relative IC50 [15]: > 1000 nM

Cn1cc(CNCC2CCN(c3ncc(C(=O)NO)cn3)CC2)c2ccccc21 [Quisinostat]
relative IC50 [1]: 131 nM
relative IC50 [2]: 208 nM
relative IC50 [3]: 226 nM
relative IC50 [4]: 44.8 nM
relative IC50 [5]: 56.1 nM
relative IC50 [6]: 105 nM
relative IC50 [7]: 42.8 nM
relative IC50 [8]: 45.5 nM
relative IC50 [9]: 34.5 nM
relative IC50 [10]: 56.8 nM
relative IC50 [11]: 18.3 nM
relative IC50 [12]: 20.4 nM
relative IC50 [13]: 16.6 nM
relative IC50 [14]: 43.4 nM
relative IC50 [15]: 8.58 nM

CNC(=O)c1cccc(-c2ccc3c(N4CCOC[C@@H]4C)nc(N4CCOC[C@@H]4C)nc3n2)c1 [AZD2014]
relative IC50 [1]: > 10000 nM
relative IC50 [2]: > 10000 nM
relative IC50 [3]: > 10000 nM
relative IC50 [4]: > 10000 nM
relative IC50 [5]: > 10000 nM
relative IC50 [6]: > 10000 nM
relative IC50 [7]: 505 nM
relative IC50 [8]: 366 nM
relative IC50 [9]: 306 nM
relative IC50 [10]: 322 nM
relative IC50 [11]: 335 nM
relative IC50 [12]: 364 nM
relative IC50 [13]: 654 nM
relative IC50 [14]: 401 nM
relative IC50 [15]: 119 nM

O=C(Nc1c[nH]nc1-c1nc2ccc(CN3CCOCC3)cc2[nH]1)NC1CC1 [AT9283]
relative IC50 [1]: > 1000 nM
relative IC50 [2]: 231 nM
relative IC50 [3]: 276 nM
relative IC50 [4]: 167 nM
relative IC50 [5]: 31.9 nM
relative IC50 [6]: 145 nM
relative IC50 [7]: 178 nM
relative IC50 [8]: 332 nM
relative IC50 [9]: 83.1 nM
relative IC50 [10]: 79.6 nM
relative IC50 [11]: 94.6 nM
relative IC50 [12]: 122 nM
relative IC50 [13]: 60.2 nM
relative IC50 [14]: 172 nM
relative IC50 [15]: 139 nM

CC1(COc2ccc3c(c2)ncn3-c2ccc3cccc(N4CCC(N)CC4)c3n2)COC1 [Crenolanib]
relative IC50 [1]: 3150 nM
relative IC50 [2]: 2930 nM
relative IC50 [3]: 3310 nM
relative IC50 [4]: 1950 nM
relative IC50 [5]: 1980 nM
relative IC50 [6]: 3240 nM
relative IC50 [7]: 3640 nM
relative IC50 [8]: 1250 nM
relative IC50 [9]: 2670 nM
relative IC50 [10]: 2430 nM
relative IC50 [11]: 2280 nM
relative IC50 [12]: 3270 nM
relative IC50 [13]: 1750 nM
relative IC50 [14]: 2710 nM
relative IC50 [15]: 3310 nM
